Assays:
B-Raf(V600E) [1] = molecular target: T1, B-Raf(V600E) (Homo sapiens, UniProt P15056, V600E); experiment: B-Raf(V600E)/MEK1(KD) cellular TR-FRET assay (double stable HEK293 T-Rex cells); type: cell-based; details: for IC50: B-Raf(V600E) TR-FRET, kinase-inactive MEK(KD) substrate, 384-well, ~2h compound treatment, SD in parentheses (n=4-6)
T1 construct: Full-length B-Raf wild-type (WT) and B-Raf(V600E) (NM_004333) cDNAs were subcloned from pcDNA3.1 into pcDNA5TO; expressed in transfected cells

[2] = test system: B-Raf(V600E)-Ba/F3 cell line; experiment: B-Raf(V600E)-Ba/F3 proliferation assay (Cell-Titer-Glo); type: cell-based; details: 384-well, called historical data, SD in parentheses (n=4-6)
Experimental: The B-Raf(V600E)-Ba/F3 cell line was generously provided by Markus Warmuth (GNF). Ba/F3 cells were counted and diluted to a final concentration of 75,000 cells/ml in RPMI media and 50μl/well were plated into 384-well white solid bottom plates. 50nl of a 10mM compound stock in DMSO were pintool transferred followed by a 48h incubation time at 37°C for 48h. Finally, 25μl Cell-Titer-Glo (Promega) detection reagent was added each and luminescence read were taken on a […] (Molecular Devices Corp.) reader.

[3] = test system: AKT activation (Ser473 phosphorylation); experiment: p-AKT(Ser473) cellular TR-FRET assay with His-tagged AKT (HEK293); type: cell-based, human; details: for observed potency (concentration range), AKT phosphorylation assay: Fig. 7B, comparable potencies in both assays
CamK2δ = experiment: CamK2δ/cSTKpep-1 cellular TR-FRET assay (transient, HEK 293); type: cell-based; details: 5min ionomycin treatment (1µM)
Experimental: HEK293 cells were transfected using Fugene 6 (Roche) at a density of 8000 cells/well in 384-well plates and a final transfection volume of 30μl. The amounts of kinase and substrate plasmids per well varied for each experiment and are specified in the figure legends. Cell lysis and detection of phosphorylated or total substrate levels was performed 48h post transfection by addition of 30μl detection buffer (50 mM Hepes pH 7.2, 0.1% BSA, 20mM EDTA, 0.8M KF, and 2% Triton) containing anti-FLAG XL665 (2ng/ul) and Eu-pSTK (0.18ng/μl) or Eu-pMEK1 (0.24ng/μl). For the relative determination of total substrate levels 30μl detection buffer was added per well containing anti-FLAG XL665 (2ng/μl) and Eu-cMyc (0.3ng/μl). Plates were incubated for 3-6h at room temperature and TR-FRET readings taken on Acquest, Analyst GT (Molecular Devices Corp.), Envision or Viewlux (Perkin Elmer) plate readers. […]
Fig. (8). Induction of CamK2δ activity. Transient transfection reactions were performed in 384-well plates as indicated. HEK 293 were reverse transfected with 50ng CamK2δ and 50ng (black bars) or 25ng (gray bars) cSTKpep-1. CamK2δ activity was induced through 5min ionomycin treatment (1µM) and p-cSTKpep-1 was quantified by TR-FRET.

B-Raf(V600E) [4] = molecular target: T1, B-Raf(V600E); experiment: B-Raf(V600E)/cSTKpep-3 cellular TR-FRET assay (double stable HEK293 T-Rex cells); type: cell-based; details: cSTKpep-3 substrate, ~2h compound treatment, SD in parentheses (n=4-6); for IC50: 384-well
B-Raf(V600E) [5] = molecular target: T1, B-Raf(V600E); experiment: B-Raf(V600E)/MEK1(WT) cellular TR-FRET assay (double stable HEK293 T-Rex cells); type: cell-based; details: MEK(WT) substrate, ~2h compound treatment, SD in parentheses (n=4-6); for IC50: 384-well
AKT = molecular target: T2, AKT (Homo sapiens, UniProt P31749); experiment: AKT/cSTKpep-3 cellular TR-FRET assay (transient, HEK293); type: cell-based; details: Fig. 7C; comparable potencies in both assays
T2 construct: expressed in transfected cells; host or cells: HEK293 (transient co-transfection)
T2 sequence (P31749 whole entry): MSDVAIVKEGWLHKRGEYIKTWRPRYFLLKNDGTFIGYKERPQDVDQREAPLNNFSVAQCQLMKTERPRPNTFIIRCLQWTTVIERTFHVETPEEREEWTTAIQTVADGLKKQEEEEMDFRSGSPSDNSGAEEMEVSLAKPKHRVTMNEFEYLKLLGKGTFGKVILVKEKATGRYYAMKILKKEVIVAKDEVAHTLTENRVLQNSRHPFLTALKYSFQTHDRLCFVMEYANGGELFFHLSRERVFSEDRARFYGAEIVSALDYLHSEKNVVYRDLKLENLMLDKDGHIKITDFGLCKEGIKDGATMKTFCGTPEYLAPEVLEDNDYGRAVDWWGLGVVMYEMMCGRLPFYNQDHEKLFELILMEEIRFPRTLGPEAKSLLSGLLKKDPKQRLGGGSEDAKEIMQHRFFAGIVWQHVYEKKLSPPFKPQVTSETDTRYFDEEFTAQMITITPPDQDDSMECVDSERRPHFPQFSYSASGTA

T1 sequence (P15056 whole entry V600E): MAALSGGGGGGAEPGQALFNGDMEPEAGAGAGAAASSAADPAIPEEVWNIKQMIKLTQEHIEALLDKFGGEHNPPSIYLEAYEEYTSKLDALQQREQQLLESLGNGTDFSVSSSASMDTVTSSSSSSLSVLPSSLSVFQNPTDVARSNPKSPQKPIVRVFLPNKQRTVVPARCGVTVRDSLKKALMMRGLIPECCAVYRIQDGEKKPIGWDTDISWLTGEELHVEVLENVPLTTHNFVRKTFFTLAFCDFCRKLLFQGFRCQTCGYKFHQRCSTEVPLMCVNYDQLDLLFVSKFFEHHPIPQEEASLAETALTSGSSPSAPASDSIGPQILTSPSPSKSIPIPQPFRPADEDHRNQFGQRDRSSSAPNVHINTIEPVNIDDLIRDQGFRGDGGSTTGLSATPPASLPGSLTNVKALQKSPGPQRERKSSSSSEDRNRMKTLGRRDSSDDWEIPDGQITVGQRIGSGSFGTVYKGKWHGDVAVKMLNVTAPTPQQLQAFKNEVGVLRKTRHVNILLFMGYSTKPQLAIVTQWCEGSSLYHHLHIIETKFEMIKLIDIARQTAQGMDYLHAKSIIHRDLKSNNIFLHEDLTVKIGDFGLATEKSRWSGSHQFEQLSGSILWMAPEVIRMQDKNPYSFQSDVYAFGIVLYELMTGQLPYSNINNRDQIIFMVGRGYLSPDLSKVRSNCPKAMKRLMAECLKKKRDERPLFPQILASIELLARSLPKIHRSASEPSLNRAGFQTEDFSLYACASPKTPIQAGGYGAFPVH

| Compound | IC50 (B-Raf(V600E) [1]) [µM] | IC50 (B-Raf(V600E) [4]) [µM] | IC50 cSTKpep-3 384-well (B-Raf(V600E) [4]) | observed potency (concentration range), AKT phosphorylation assay [3] | IC50 (B-Raf(V600E) [5]) [µM] | IC50 MEK(WT) 384-well (B-Raf(V600E) [5]) | observed potency (concentration range), cSTKpep-3 phosphorylation assay (AKT) | other results |
| --- | --- | --- | --- | --- | --- | --- | --- | --- |
| O=C(NOC[C@H](O)CO)c1ccc(F)c(F)c1Nc1ccc(I)cc1F [PD0325901] |  |  |  |  |  |  |  | IC50 MEK(KD) 384-well (B-Raf(V600E) [1]): inactive; IC50 ([2]; Mus musculus, BaF3, 48h): […] |
| CN[C@@H]1C[C@H]2O[C@@](C)([C@@H]1OC)n1c3ccccc3c3c4c(c5c6ccccc6n2c5c31)C(=O)NC4 [Staurosporine] |  |  |  |  |  |  |  | factor between activity on p-AKT versus p-cSTKpep-3 ([3]; p-AKT IC50 versus p-cSTKpep-3 IC50): ~ 100 fold |
| C[C@H](CCC(=O)O)C[C@H](C)C[C@H](C)C(=O)/C=C(\O)[C@H](C)C[C@H](C)C/C=C/[C@@H](C)[C@@H](O)[C@@H](C)[C@@H](O)C[C@@H]1CC[C@@](C)([C@H]2CC[C@@](C)([C@@H](C)O)O2)O1 [ionomycin] |  |  |  |  |  |  |  | induction of CamK2δ activity / cSTKpep-1 phosphorylation (CamK2δ): ionomycin inducible |
| COC[C@H]1OC(=O)c2coc3c2[C@@]1(C)C1=C(C3=O)[C@@H]2CCC(=O)[C@@]2(C)C[C@H]1OC(C)=O [Wortmannin] | > 33 | > 33 | did not show any activity | low nanomolar | > 33 | did not show any activity | low nanomolar |  |
| O=c1cc(N2CCOCC2)oc2c(-c3ccccc3)cccc12 [LY294002, 2-(4-morpholinyl)-8-phenyl-4H-1-benzopyran-4-one] | > 33 | > 33 | did not show any activity | low micromolar | > 33 | did not show any activity | low micromolar |  |

— PMC2774688, “Cellular Ser/Thr-Kinase Assays Using Generic Peptide Substrates” (Current Chemical Genomics, 2008)
